Data published in US20250002450A1, “CATIONIC STEROID COMPOUNDS, METHOD OF OBTAINING THEREOF, FORMULATIONS COMPRISING THEREOF AND THEIR USES” (UNIVERSIDADE DO PORTO, priority 2021, published 2025).
In brackets after ≈: the same amount, converted by molar mass.

Legend:
C. albicans ATCC 10231 [1] = assay: Mitochondrial dehydrogenases activity, MTT reduction assay; assay type: cell-based, Candida albicans; settings: 8 μg/mL, 2 h
Method: In order to determine whether compound 1 could also affect mitochondrial function, MTT reduction assay was performed. In this assay, tetrazolium salts are reduced to purple formazan derivatives by mitochondrial dehydrogenases, which can be measured spectrophotometrically and reported to mitochondrial activity and, indirectly, to cell viability. In this assay, cells were exposed to the test compounds for 2 h ([FIG. 11]). […] An increase in reactive oxygen species (ROS) has been linked to azoles activity: even though their primary mode of action is the inhibition of ergosterol synthesis, they also induce accumulation of ROS, which enhances their antifungal activity and translates into an increase in mitochondrial activity at inhibitory concentrations. […] Mitochondrial dehydrogenase activity was evaluated by the MTT assay, as previously described, with some modifications. Cell suspensions of C. albicans ATCC 10231 were prepared in the same manner as described above and, after overnight incubation at 36° C., were centrifuged at 3500 rpm for 15 min, the supernatant was removed, and the cells were carefully resuspended in 2 mL of RPMI. Test conditions and controls were the same as described above, but the time of exposure to the test compounds was 2 h. After the exposure time, cell suspensions were centrifuged at 3500 rpm for 10 min, the supernatant was removed, and 500 μL of MTT solution (0.5 mg/mL in RPMI, at 35° C.) (Thiazolyl Blue Tetrazolium Bromide, Alfa Aesar, Ward Hill, MA, USA) were added. After a 1 h incubation at 35° C., the insoluble formazan product resulting from the conversion of MTT by mitochondrial dehydrogenases of metabolically active cells was solubilized with 300 μL of DMSO. 100 μL of each sample were transferred in duplicate to a microtiter plate and the extent of the reduction of MTT to formazan was quantified by measuring the absorbance at 570 nm. Three independent assays were performed in duplicate, and the results are expressed as percentage of MTT reduction, using the untreated cells as control.

E. coli ATCC 25922 = assay: Checkerboard synergy with erythromycin; assay type: cell-based, Escherichia coli; settings: Escherichia coli
Method: The combined effect of compound 1 and CTX for E. coli SA/2, VAN for E. faecalis B3/101, COL for E. coli 2252, erythromycin for E. coli ATCC 25922, and OXA for S. aureus 66/1 was evaluated by the checkerboard method. […] The interaction between compound 1 and erythromycin was assessed for E. coli ATCC 25922. Gram-negative bacteria are intrinsically resistant to erythromycin, a macrolide that inhibits protein synthesis, and cannot penetrate the outer membrane of Gram-negative bacteria, which is impermeable to hydrophobic antibiotics. Ascertain ceragenins have been previously described to be able to enhance the efficacy of such antibiotics, this possibility was investigated for compound 1 and a FICI of 0.6 was obtained.

C. albicans ATCC 10231 [2] = assay: Ergosterol binding assay; assay type: cell-based, Candida albicans
Method: Ceragenins have been described to interact with the lipophilic environment of microbial membranes and ergosterol is the major sterol component of fungal plasma membrane, and the target of several antifungals. As such, in order to evaluate the ability of compound 1 to bind to membrane ergosterol of C. albicans ATCC 10231, MICs were determined in the absence and presence of exogenous ergosterol ([FIG. 10]). If the tested compound has the ability to perturb membrane integrity by binding to ergosterol, is expected that, in the presence of exogenous ergosterol, the compound binds to it, decreasing the amount of compound available to bind to membrane ergosterol, therefore increasing the MIC. Amphotericin B was used as a positive control for this assay and MICs obtained were 8 times higher in the presence of 400 μg/mL of exogenous ergosterol than in its absence (2 to 16 μg/mL, data not shown). […] The ability of compound 1 to bind to membrane ergosterol of C. albicans ATCC 10231, was evaluated by the ergosterol binding assay, as previously described. Briefly, MICs of compound 1 were determined by broth microdilution, as described above, in the absence and presence of ergosterol (Sigma-Aldrich, St. Louis, MO, USA) at a final concentration of 400 μg/mL. Ergosterol was prepared immediately before being added to the plates, by maceration and dissolution in DMSO. The formed emulsion was then homogenized, heated to increase solubility, and diluted in RPMI. Amphotericin B was used as positive control. Plates were incubated at 35° C. for 48 h and MICs were determined as described above. At least two independent assays were performed.

C. albicans ATCC 10231 [3] = assay: Propidium iodide influx assay (SYTO 9/PI); assay type: cell-based, Candida albicans; settings: 8 μg/mL, 5 min

| MIC (E. coli ATCC 25922; ATCC25922, E. coli ATCC 25922, erythromycin alone) [µg/mL] | MIC (E. coli ATCC 25922; ATCC25922, E. coli ATCC 25922, with 16 μg/mL of compound 1 (½×MIC)) [µg/mL] | increase of MIC in the presence of exogenous ergosterol (C. albicans ATCC 10231 [2]; 400 μg/mL ergosterol vs absence) [times] | MIC (C. albicans ATCC 10231 [2]; absence of exogenous ergosterol) [µg/mL] | MIC (C. albicans ATCC 10231 [2]; presence of 400 μg/mL of exogenous ergosterol) [µg/mL] | SMILES | mitochondrial activity (MTT reduction) vs untreated control (C. albicans ATCC 10231 [1]) | reduction of SYTO 9/PI ratio vs untreated control (C. albicans ATCC 10231 [3]) |
| --- | --- | --- | --- | --- | --- | --- | --- |
| – | – | – | – | – | C[C@@H](c1ncncc1F)[C@](O)(Cn1cncn1)c1ccc(F)cc1F [VRC, voriconazole] | identical effect | – |
| 16 | 0.125 | – | – | – | CC[C@H]1OC(=O)[C@H](C)[C@@H](O[C@H]2C[C@@](C)(OC)[C@@H](O)[C@H](C)O2)[C@H](C)[C@@H](O[C@@H]2O[C@H](C)C[C@H](N(C)C)[C@H]2O)[C@](C)(O)C[C@@H](C)C(=O)[C@H](C)[C@@H](O)[C@]1(C)O [erythromycin, reference compound] | – | – |
| – | – | 8 | 2 (≈ 2.16 µM) | 16 | C[C@@H]1[C@H](O)[C@@H](C)/C=C/C=C/C=C/C=C/C=C/C=C/C=C/[C@H](O[C@@H]2O[C@H](C)[C@@H](O)[C@H](N)[C@@H]2O)C[C@@H]2O[C@](O)(C[C@@H](O)C[C@@H](O)[C@H](O)CC[C@@H](O)C[C@@H](O)CC(=O)O[C@H]1C)C[C@H](O)[C@H]2C(=O)O [Amphotericin B] | significantly reduced | statistically significant |
